According to patent publication US8222235B2, “2-methylene-19-nor-(20R)-1α-hydroxy-bishomopregnacalciferol” (Wisconsin Alumni Research Foundation, priority 2004, dated 2012):
One block for each compound: values may come before it.

Legend:
vitamin D receptors = molecular target: T1, vitamin D receptors (Homo sapiens, UniProt P11473); conditions: as set forth in the '352, '861 and '622 patents; cited from earlier work
T1 sequence (P11473 1-427): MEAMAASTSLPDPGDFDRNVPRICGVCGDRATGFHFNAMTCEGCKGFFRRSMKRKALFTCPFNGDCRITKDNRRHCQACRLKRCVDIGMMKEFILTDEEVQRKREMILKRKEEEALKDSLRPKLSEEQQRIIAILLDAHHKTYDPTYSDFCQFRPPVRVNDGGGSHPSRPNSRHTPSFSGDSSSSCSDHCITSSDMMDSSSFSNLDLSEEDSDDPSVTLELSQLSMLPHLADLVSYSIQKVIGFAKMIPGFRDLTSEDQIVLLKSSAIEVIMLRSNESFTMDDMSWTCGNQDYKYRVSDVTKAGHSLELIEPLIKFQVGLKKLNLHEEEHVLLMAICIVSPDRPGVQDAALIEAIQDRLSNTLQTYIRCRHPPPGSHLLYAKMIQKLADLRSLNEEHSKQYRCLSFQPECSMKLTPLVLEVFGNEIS

[1] = as set forth in the '352, '861 and '622 patents; cited from earlier work
[2] = as set forth in the '352, '861 and '622 patents; cited from earlier work; remark: listed apart in the source
[3] = test system: Human promyelocytic leukemia (HL60) cells; experiment: HL-60 differentiation (nitro blue tetrazolium reduction); format: cell-based; conditions: HL-60 cells in culture; FIG. 2
Description: FIG. 2 is a graph comparing the percent HL-60 cell differentiation as a function of the concentration of (20R)-2 MbisP with that of 1,25(OH)2D3.
The study drugs were dissolved in ethanol and the concentrations determined using UV spectrophotometry. Serial dilutions were prepared so that a range of drug concentrations could be tested without changing the final concentration of ethanol (≦0.2%) present in the cell cultures.
Human promyelocytic leukemia (HL60) cells were grown in RPMI-1640 medium containing 10% fetal bovine serum. The cells were incubated at 37° C. in the presence of 5% CO2.
HL60 cells were plated at 1.2×10^5 cells/ml. Eighteen hours after plating, cells in duplicate were treated with drug. Four days later, the cells were harvested and a nitro blue tetrazolium reduction assay was performed (Collins et al., 1979; J. Exp. Med. 149:969-974). The percentage of differentiated cells was determined by counting a total of 200 cells and recording the number that contained intracellular black-blue formazan deposits. Verification of differentiation to monocytic cells was determined by measuring phagocytic activity (data not shown).

[4] = Intestinal calcium transport (everted gut sac method); format: in vivo, Sprague-Dawley rats; conditions: rats, ip, four consecutive doses, even very high concentrations; FIG. 5
Source text: FIG. 5 is a bar graph comparing the intestinal calcium transport activity of (20R)-2 MbisP with that of 1,25(OH)2D3.
(§1) Male, weanling Sprague-Dawley rats were placed on Diet 11 (0.47% Ca) diet +AEK for one week followed by Diet 11 (0.02% Ca) +AEK for 3 weeks. The rats were then switched to a diet containing 0.47% Ca for one week followed by two weeks on a diet containing 0.02% Ca. Dose administration began during the last week on 0.02% calcium diet. Four consecutive ip doses were given approximately 24 hours apart. Twenty-four hours after the last dose, blood was collected from the severed neck and the concentration of serum calcium determined as a measure of bone calcium mobilization. The first 10 cm of the intestine was also collected for intestinal calcium transport analysis using the everted gut sac method.

[5] = molecular target: T2, full-length recombinant rat vitamin D receptor (Rattus norvegicus, UniProt P13053); experiment: Vitamin D receptor competitive binding with [3H]-1,25-(OH)2-D3; conditions: competition with [3H]-1,25-(OH)2-D3; FIG. 1
T2 construct: Full-length recombinant rat receptor was expressed in E. coli BL21(DE3) Codon Plus RIL cells; histidine tag (C); made in house; host or cells: E. coli BL21(DE3) Codon Plus RIL
T2 sequence (P13053 1-423): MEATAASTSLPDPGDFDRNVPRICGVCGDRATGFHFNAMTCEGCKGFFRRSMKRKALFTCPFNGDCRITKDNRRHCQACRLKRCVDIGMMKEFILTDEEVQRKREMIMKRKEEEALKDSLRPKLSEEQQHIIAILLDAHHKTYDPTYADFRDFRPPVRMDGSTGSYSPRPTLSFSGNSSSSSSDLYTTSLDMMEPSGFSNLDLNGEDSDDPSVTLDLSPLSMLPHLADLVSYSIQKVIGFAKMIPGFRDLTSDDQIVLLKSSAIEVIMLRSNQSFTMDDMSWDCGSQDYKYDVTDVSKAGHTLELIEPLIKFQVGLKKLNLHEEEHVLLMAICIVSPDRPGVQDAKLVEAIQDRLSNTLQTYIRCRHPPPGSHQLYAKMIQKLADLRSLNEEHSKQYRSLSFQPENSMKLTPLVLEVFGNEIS
Source text: FIG. 1 is a graph comparing the relative activity of (20R)-2 MbisP and 1,25(OH)2D3 to compete for binding with [^3H]-1,25-(OH)2-D3 to the full-length recombinant rat vitamin D receptor.
Full-length recombinant rat receptor was expressed in E. coli BL21(DE3) Codon Plus RIL cells and purified to homogeneity using two different column chromatography systems. The first system was a nickel affinity resin that utilizes the C-terminal histidine tag on this protein. The protein that was eluted from this resin was further purified using ion exchange chromatography (S-Sepharose Fast Flow). Aliquots of the purified protein were quick frozen in liquid nitrogen and stored at −80° C. until use. For use in binding assays, the protein was diluted in TEDK50 (50 mM Tris, 1.5 mM EDTA, pH 7.4, 5 mM DTT, 150 mM KCl) with 0.1% Chaps detergent. […]
Unlabeled ligands were dissolved in ethanol and the concentrations determined using UV spectrophotometry (1,25(OH)2D3: molar extinction coefficient=18,200 and λmax=265 nm; Analogs: molar extinction coefficient=42,000 and λmax=252 nm). […]
Radiolabeled and unlabeled ligands were added to 100 mcl of the diluted protein at a final ethanol concentration of ≦10%, mixed and incubated overnight on ice to reach binding equilibrium. […] Total binding was determined from the tubes containing only radiolabeled ligand.

[6] = test system: parathyroid hormone (PTH); experiment: PTH suppression in adult rats; format: in vivo, Sprague-Dawley rats; conditions: ip, 7 consecutive days, FIG. 7
Description: FIG. 7 is a bar graph comparing the percent parathyroid hormone (PTH) suppression in adult rats of (20R)-2 MbisP with 1,25(OH)2D3.
(§2) Adult, female Sprague-Dawley rats were obtained from Harlan (Madison, Wis.).
(§3) Upon receipt, the animals were identified by individual tail marks. Animals were housed in suspended, stainless steel, wire-bottom cages. Each cage contained one animal. The animal rooms were maintained at a temperature of 68 to 72° F. and a relative humidity of 25 to 75%. The holding rooms were set to provide 12 hours of light per day. Water and a purified rodent diet (Suda et al., Purified Rodent Diet-Diet 11) containing […] 0.3% phosphorus and fat soluble vitamins A, D, E and K were provided ad libitum.
(§4) Animals were randomly assigned to treatment groups (5 animals/group). All doses were administered intraperitoneally in 100 microliters of propylene glycol. Four to seven consecutive doses were given approximately 24 hours apart. Dosing was initiated after the animals had been allowed to acclimate for at least one week. […]
Twenty-four hours after the final dose, blood was collected from the tail artery and the concentration of bioactive serum PTH was measured using the rat BioActive Intact PTH ELISA Kit from Immutopics, Inc. (San Clemente, Calif.).

[7] = Bone calcium mobilization (serum calcium on low calcium diet); format: in vivo, Sprague-Dawley rats; conditions: rats, ip, four consecutive doses, even very high concentrations; FIG. 4
Source text: FIG. 4 is a bar graph comparing the bone calcium mobilization activity of (20R)-2 MbisP with that of 1,25(OH)2D3.
as §1

[8] = test system: 24-hydroxylase (24Ohase) gene promoter; experiment: In vitro transcription assay (luciferase reporter in ROS 17/2.8 cells); format: cell-based; conditions: FIG. 3
Description: FIG. 3 is a graph comparing the in vitro transcription activity of (20R)-2MbisP with that of 1,25(OH)2D3.
Transcription activity was measured in ROS 17/2.8 (bone) cells that were stably transfected with a 24-hydroxylase (24Ohase) gene promoter upstream of a luciferase reporter gene (Arbour et al., 1998). Cells were given a range of doses. Sixteen hours after dosing the cells were harvested and luciferase activities were measured using a luminometer. RLU=relative luciferase units.

[9] = Hypercalcemia: serum calcium in adult rats; format: in vivo, Sprague-Dawley rats; conditions: ip, doses as high as 45 nmol/day, FIG. 6
Description: FIG. 6 is a bar graph comparing the serum calcium levels in adult rats after administration of (20R)-2 MbisP and 1,25(OH)2D3.
as §2, §3, §4
Twenty-four hours after the final dose, approximately 1 ml of blood was collected from the tail artery of each experimental animal. […] The level of calcium was determined by diluting the serum into 0.1% lanthum chloride and measuring the absorbance on an atomic absorption spectrophotometer (Perkin Elmer Model 3110, Shelton, Conn.).

Compound: 1α-hydroxy-2-methylene-19-nor-(20S)-homopregnacalciferol
binding activity to vitamin D receptors (vitamin D receptors): relatively high
cell differentiation activity [1]: relatively high
calcemic activity as compared to 1α,25-dihydroxyvitamin D3 [2]: little if any

Compound: 1α-hydroxy-2-methylene-19-nor-bishomopregnacalciferol
binding activity to vitamin D receptors (vitamin D receptors): relatively high
cell differentiation activity [1]: relatively high
calcemic activity as compared to 1α,25-dihydroxyvitamin D3 [2]: little if any

Compound: C=C1[C@H](O)CC(=C/C=C2\CCC[C@]3(C)[C@@H](CC)CC[C@@H]23)C[C@H]1O [1α-Hydroxy-2-methylene-19-nor-pregnacalciferol]
binding activity to vitamin D receptors (vitamin D receptors): relatively high
cell differentiation activity [1]: relatively high
calcemic activity as compared to 1α,25-dihydroxyvitamin D3 [2]: little if any

times less active than 1,25-(OH)2D3 in turning on transcription of a reporter gene coupled to the CYP-24 promoter [8]: about 5 times
hypercalcemia (serum calcium) [9]: failed to cause hypercalcemia
Compound: C=C1[C@H](O)CC(=C/C=C2\CCC[C@]3(C)C([C@H](C)CC)CC[C@@H]23)C[C@H]1O (stereo in doubt) [2-Methylene-19-nor-(20R)-1α-hydroxy-bishomopregnacalciferol]
times less active than 1,25-(OH)2D3 in causing the differentiation of HL-60 cells [3]: about 5 times
intestinal calcium transport [4]: does not support
binding to the recombinant vitamin D receptor relative to 1,25-(OH)2D3 [5]: approximately equally effective as 1,25-(OH)2D3
suppression of parathyroid hormone (PTH) in the plasma [6]: considerable activity
bone calcium mobilization [7]: does not support
